Assay results from patent US20150157739A1, “Imidazo[2,1]thiazol-3-one derivatives” (Hoffmann-La Roche Inc., priority 2012, published 2015).

Columns and labels:
[1] = target: T1, aggregated synthetic Aβ40 (Homo sapiens, UniProt P05067); experiment: Thiazin-red R displacement fluorescence assay on aggregated A-beta; type: binding; settings: displacement of Thiazin-red R from aggregated Aβ40; compound 0.3 nM to 10000 nM; 30 min room temperature; Ex 531 nm/Em 595 nm
T1 construct: Synthetic Aβ40 is aggregated at a concentration of 50 μM
Experimental: (§1) Assay for Determination of […] for Tau and A-Beta
(§2) Recombinant human-microtubule associated protein Tau purified from E. coli is aggregated at a concentration of 5 μM with Arachidonic Acid (100 μM) in Tris 10 mM pH8, 24 h at 37° C. Synthetic Aβ40 is aggregated at a concentration of 50 μM with Arachidonic Acid (100 μM) in Tris 10 mM pH8, for three days at 37° C., under shaking at 150 rpm.
(§3) A saturation analysis of Thiazin-red R to the aggregated proteins is done to determine the affinity (Kd) of the Thiazin-red R to the aggregated protein.
(§4) Thiazin-red R will be added at the concentration corresponding to the Kd to the respective aggregated protein binding site, to induce a fluorescent signal that can be inhibited by the addition of a displacer compound.
(§5) In parallel, auto fluorescence of the compound is measured together with the aggregated proteins, but without Thiazin-red R. As negative control, ligand and aggregated protein is used and as positive control, Thiazin-red R, reference compound with known activity and aggregated protein is used.
(§6) Assay is performed in Perkin Elmer OptiPlate 384, black, 45 ul assay volume, assay buffer is DPBS no CaCl2 no MgCl2 (GIBCO N. 14020). Tested compounds are diluted in DMSO and 2 μl is added to the assay ([…]). Assay is started by the addition of the aggregated protein (competitive condition). Plates are shortly shacked (1 min with Sterico variomag teleshake) and incubated for 30 min at room temperature. Measurement are done with En:Vision (Perkin Elmer), at Excitation 531 nm/Emission 595 nm.

[2] = target: T2, aggregated recombinant human-microtubule associated protein Tau (Homo sapiens, UniProt P10636); experiment: Thiazin-red R displacement fluorescence assay on aggregated Tau; type: binding; settings: displacement of Thiazin-red R from aggregated Tau; compound 0.3 nM to 10000 nM; 30 min room temperature; Ex 531 nm/Em 595 nm
T2 construct: Recombinant human-microtubule associated protein Tau purified from E. coli is aggregated at a concentration of 5 μM with Arachidonic Acid (100 μM) in Tris 10 mM pH8, 24 h at 37° C
Experimental: as §1, §2, §3, §4, §5, §6

T2 sequence (P10636 whole entry): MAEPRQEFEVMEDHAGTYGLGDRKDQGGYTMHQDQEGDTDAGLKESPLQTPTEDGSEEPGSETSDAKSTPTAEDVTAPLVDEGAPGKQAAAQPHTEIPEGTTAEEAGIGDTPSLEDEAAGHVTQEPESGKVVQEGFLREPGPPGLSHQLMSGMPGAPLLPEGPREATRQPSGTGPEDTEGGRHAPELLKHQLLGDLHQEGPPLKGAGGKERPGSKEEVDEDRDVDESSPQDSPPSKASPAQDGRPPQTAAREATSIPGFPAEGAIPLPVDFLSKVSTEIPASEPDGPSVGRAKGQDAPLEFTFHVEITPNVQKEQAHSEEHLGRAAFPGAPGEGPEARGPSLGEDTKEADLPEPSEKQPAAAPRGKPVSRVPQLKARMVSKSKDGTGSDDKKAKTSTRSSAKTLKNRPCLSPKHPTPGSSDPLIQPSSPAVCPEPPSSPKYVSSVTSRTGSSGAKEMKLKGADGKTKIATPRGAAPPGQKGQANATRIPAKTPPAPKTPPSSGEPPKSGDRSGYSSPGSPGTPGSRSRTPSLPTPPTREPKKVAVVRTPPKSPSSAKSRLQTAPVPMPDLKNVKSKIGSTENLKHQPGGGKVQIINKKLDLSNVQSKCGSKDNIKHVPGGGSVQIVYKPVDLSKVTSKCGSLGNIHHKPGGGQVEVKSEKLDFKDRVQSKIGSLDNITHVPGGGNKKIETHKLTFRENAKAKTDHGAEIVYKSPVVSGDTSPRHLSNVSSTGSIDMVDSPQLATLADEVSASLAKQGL
T1 sequence (P05067 672-711 limits assumed): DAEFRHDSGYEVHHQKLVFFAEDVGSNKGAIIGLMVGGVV

Row | Compound | IC50 [1] [nM] | IC50 [2] [nM]
1 | COc1cc(/C=c2\sc3nc(-c4ccc(N5CCCC5)cc4)cn3c2=O)cc(Cl)c1O [Example 90, 2-[1-(3-Chloro-4-hydroxy-5-methoxy-phenyl)-meth-(Z)-ylidene]-6-(4-(pyrrolidin-1-yl)phenyl)-imidazo[2,1-b]thiazol-3-one] | 16 | 37
2 | COc1cc(/C=c2\sc3nc(-c4cccc(OCCOCCOCCF)c4)cn3c2=O)cc(Cl)c1O [Example 95, 2-[1-(3-Chloro-4-hydroxy-5-methoxy-phenyl)-meth-(Z)-ylidene]-6-(3-{2-[2-(2-fluoro-ethoxy)-ethoxy]-ethoxy}-phenyl)-imidazo[2,1-b]thiazol-3-one] | 2150 | 28
3 | COc1cc(/C=c2\sc3nc(-c4cccc(OC(F)(F)F)c4)cn3c2=O)ccc1O [Example 36, 2-[1-(4-Hydroxy-3-methoxy-phenyl)-meth-(Z)-ylidene]-6-(3-trifluoromethoxy-phenyl)-imidazo[2,1-b]thiazol-3-one] | > 10000 | 401
4 | CCCOc1cc(/C=c2\sc3nc(-c4cnccn4)cn3c2=O)cc(Cl)c1O [Example 129, 2-[1-(3-Chloro-4-hydroxy-5-propoxy-phenyl)-meth-(Z)-ylidene]-6-pyrazin-2-yl-imidazo[2,1-b]thiazol-3-one] | 2220 | 64
5 | COc1cc(/C=c2\sc3nc(-c4ccc(C(=O)N(C)CCOCCF)cc4)cn3c2=O)cc(Cl)c1O [Example 23, 4-{2-[1-(3-Chloro-4-hydroxy-5-methoxy-phenyl)-meth-(Z)-ylidene]-3-oxo-2,3-dihydro-imidazo[2,1-b]thiazol-6-yl}-N-[2-(2-fluoro-ethoxy)-ethyl]-N-methyl-benzamide] | 328 | 26
6 | COc1ccccc1-c1cn2c(=O)/c(=C/c3cc(Cl)c(O)c(OC)c3)sc2n1 [Example 55, 2-[1-(3-Chloro-4-hydroxy-5-methoxy-phenyl)-meth-(Z)-ylidene]-6-(2-methoxy-phenyl)-imidazo[2,1-b]thiazol-3-one] | – | 103
7 | COc1cc(/C=c2\sc3nc(-c4cccc(C#N)c4)cn3c2=O)cc(F)c1O [Example 38, 3-{2-[1-(3-Fluoro-4-hydroxy-5-methoxy-phenyl)-meth-(Z)-ylidene]-3-oxo-2,3-dihydro-imidazo[2,1-b]thiazol-6-yl}-benzonitrile] | > 10000 | –
8 | COc1cc(/C=c2\sc3nc(-c4cc(F)ccc4F)cn3c2=O)cc(Cl)c1O [Example 56, 2-[1-(3-Chloro-4-hydroxy-5-methoxy-phenyl)-meth-(Z)-ylidene]-6-(2,5-difluoro-phenyl)-imidazo[2,1-b]thiazol-3-one] | – | 27
9 | COc1cc(/C=c2\sc3nc(-c4cccc(C(=O)N(C)CCF)c4)cn3c2=O)cc(Cl)c1O [Example 120, 3-{2-[1-(3-Chloro-4-hydroxy-5-methoxy-phenyl)-meth-(Z)-ylidene]-3-oxo-2,3-dihydro-imidazo[2,1-b]thiazol-6-yl}-N-(2-fluoro-ethyl)-N-methyl-benzamide] | – | 49
10 | COc1cc(/C=c2\sc3nc(-c4ccccc4OCCF)cn3c2=O)cc(Cl)c1O [Example 83, 2-[1-(3-Chloro-4-hydroxy-5-methoxy-phenyl)-meth-(Z)-ylidene]-6-(2-(2-fluoroethoxyl)phenyl)-imidazo[2,1-b]thiazol-3-one] | – | 173
11 | COc1cc(/C=c2\sc3nc(-c4ccccc4OCCOCCOCCF)cn3c2=O)cc(Cl)c1O [Example 96, 2-[1-(3-Chloro-4-hydroxy-5-methoxy-phenyl)-meth-(Z)-ylidene]-6-(2-{2-[2-(2-fluoro-ethoxy)-ethoxy]-ethoxy}-phenyl)-imidazo[2,1-b]thiazol-3-one] | – | 102
12 | COc1cc(/C=c2\sc3nc(-c4cccc(C#N)c4)cn3c2=O)cc(F)c1O [Example 73, 3-{2-[1-(3-Fluoro-4-hydroxy-5-methoxy-phenyl)-meth-(Z)-ylidene]-3-oxo-2,3-dihydro-imidazo[2,1-b]thiazol-6-yl}-benzonitrile] | 13 | –

Results, then the compound that gave them:

Row | IC50 [1] [nM] | IC50 [2] [nM] | Compound
13 | 50 | 2 | COc1cc(/C=c2\sc3nc(-c4cccc(F)c4)cn3c2=O)cc(OC)c1O [Example 59, 2-[1-(4-Hydroxy-3,5-dimethoxy-phenyl)-meth-(Z)-ylidene]-6-(3-fluoro-phenyl)-imidazo[2,1-b]thiazol-3-one]
14 | 260 | 6 | COc1cc(/C=c2\sc3nc(-c4ccnc(C)c4)cn3c2=O)cc(F)c1O [Example 76, 2-[1-(3-Fluoro-4-hydroxy-5-methoxy-phenyl)-meth-(Z)-ylidene]-6-(2-methylpyridin-4-yl)-imidazo[2,1-b]thiazol-3-one]
15 | 620 | 20 | COc1cc(/C=c2\sc3nc(-c4ccncc4)cn3c2=O)cc(F)c1O [Example 69, 2-[1-(3-Fluoro-4-hydroxy-5-methoxy-phenyl)-meth-(Z)-ylidene]-6-(pyridin-4-yl)-imidazo[2,1-b]thiazol-3-one]
16 | 393 | 11 | COc1cc(/C=c2\sc3nc(-c4ccc(Cl)cc4)cn3c2=O)cc(F)c1O [Example 4, 6-(4-Chloro-phenyl)-2-[1-(3-fluoro-4-hydroxy-5-methoxy-phenyl)-meth-(Z)-ylidene]-imidazo[2,1-b]thiazol-3-one]
17 | 184 | 20 | CCN(CC)c1ccc(-c2cn3c(=O)/c(=C/c4cc(Cl)c(O)c(OC)c4)sc3n2)cc1 [Example 91, 2-[1-(3-Chloro-4-hydroxy-5-methoxy-phenyl)-meth-(Z)-ylidene]-6-(4-(diethylamino)phenyl)-imidazo[2,1-b]thiazol-3-one]
18 | 621 | 17 | COc1cc(/C=c2\sc3nc(-c4ccc(C(=O)N(C)CCF)cc4)cn3c2=O)cc(Cl)c1O [Example 125, 4-{2-[1-(3-Chloro-4-hydroxy-5-methoxy-phenyl)-meth-(Z)-ylidene]-3-oxo-2,3-dihydro-imidazo[2,1-b]thiazol-6-yl}-N-(2-fluoro-ethyl)-N-methyl-benzamide]
19 | 1240 | 1 | COc1cc(/C=c2\sc3nc(-c4cccc(C(N)=O)c4)cn3c2=O)cc(Cl)c1O [Example 86, 3-{2-[1-(3-Chloro-4-hydroxy-5-methoxy-phenyl)-meth-(Z)-ylidene]-3-oxo-2,3-dihydro-imidazo[2,1-b]thiazol-6-yl}-benzamide]
20 | 12 | 3 | CCCOc1cc(/C=c2\sc3nc(-c4ccc(Cl)cc4)cn3c2=O)cc(OC)c1O [Example 31, 6-(4-Chloro-phenyl)-2-[1-(4-hydroxy-3-methoxy-5-propoxy-phenyl)-meth-(Z)-ylidene]-imidazo[2,1-b]thiazol-3-one]
21 | 32 | 8 | COc1cc(/C=c2\sc3nc(-c4ccnc(C)c4)cn3c2=O)cc(OC)c1O [Example 16, 2-[1-(4-Hydroxy-3,5-dimethoxy-phenyl)-meth-(Z)-ylidene]-6-(2-methyl-pyridin-4-yl)-imidazo[2,1-b]thiazol-3-one]
22 | 118 | 1.8 | COc1cc(/C=c2\sc3nc(-c4ccc(C(=O)NCCNC(=O)OC(C)(C)C)cc4)cn3c2=O)cc(Cl)c1O [Example 150, [2-(4-{2-[1-(3-Chloro-4-hydroxy-5-methoxy-phenyl)-meth-(Z)-ylidene]-3-oxo-2,3-dihydro-imidazo[2,1-b]thiazol-6-yl}-benzoylamino)-ethyl]-carbamic acid tert-butyl ester]
23 | 4160 | 6 | COc1cc(/C=c2\sc3nc(-c4cccc(OC(F)F)c4)cn3c2=O)cc(Cl)c1O [Example 62, 2-[1-(3-Chloro-4-hydroxy-5-methoxy-phenyl)-meth-(Z)-ylidene]-6-(3-(difluoromethoxy)-phenyl)-imidazo[2,1-b]thiazol-3-one]
24 | 412 | 11 | COc1cc(/C=c2\sc3nc(-c4cccc(Cl)c4)cn3c2=O)cc(F)c1O [Example 39, 2-[1-(3-fluoro-4-hydroxy-5-methoxy-phenyl)-meth-(Z)-ylidene]-6-(3-chloro-phenyl)-imidazo[2,1-b]thiazol-3-one]
25 | – | 13 | COc1cc(/C=c2\sc3nc(-c4cccc(OC(F)(F)F)c4)cn3c2=O)cc(F)c1O [Example 35, 2-[1-(3-Fluoro-4-hydroxy-5-methoxy-phenyl)-meth-(Z)-ylidene]-6-(3-trifluoromethoxy-phenyl)-imidazo[2,1-b]thiazol-3-one]
26 | – | 7 | COc1cc(/C=c2\sc3nc(-c4cccc(C#N)c4)cn3c2=O)cc(OC)c1O [Example 50, 3-{2-[1-(4-Hydroxy-3,5-dimethoxy-phenyl)-meth-(Z)-ylidene]-3-oxo-2,3-dihydro-imidazo[2,1-b]thiazol-6-yl}-benzonitrile]
